These results are taken from ChEMBL document CHEMBL5380822, “Design, Synthesis, and Biological Evaluation of Novel Hybrids Containing Dihydrochalcone as Tyrosinase Inhibitors to Treat Skin Hyperpigmentation” (J Med Chem, 2023).

Series [1] concerns the target T1, Mushroom tyrosinase (Agaricus bisporus, UniProt O42713+Q00024+C7FF04+C7FF05). Description: Inhibition of Agaricus bisporus tyrosinase using L-dopa as substrate preincubated with compound for 20 mins followed by substrate addition measured after 5 mins by absorbance based assay.
Series [2] concerns the target T1, Mushroom tyrosinase. Put plainly: Inhibition of Agaricus bisporus tyrosinase using L-tyrosine as substrate preincubated with compound for 20 mins followed by substrate addition measured after 10 mins by absorbance based assay.
Series [3] relates to Cavia porcellus. Put plainly: Anti-melanogenic activity in guinea pig model of UV-induced skin pigmentation assessed as healing of scorching skin administered topically for 2 weeks measured after 3 days by Fontana-Masson staining based analysis. It is filed as functional, organism-based. To be noted: dose 0.5-1 mM, time 17.0 day.
Series [4] deals with T2, Tyrosinase (Mus musculus) (UniProt P11344).
T2 sequence (whole entry): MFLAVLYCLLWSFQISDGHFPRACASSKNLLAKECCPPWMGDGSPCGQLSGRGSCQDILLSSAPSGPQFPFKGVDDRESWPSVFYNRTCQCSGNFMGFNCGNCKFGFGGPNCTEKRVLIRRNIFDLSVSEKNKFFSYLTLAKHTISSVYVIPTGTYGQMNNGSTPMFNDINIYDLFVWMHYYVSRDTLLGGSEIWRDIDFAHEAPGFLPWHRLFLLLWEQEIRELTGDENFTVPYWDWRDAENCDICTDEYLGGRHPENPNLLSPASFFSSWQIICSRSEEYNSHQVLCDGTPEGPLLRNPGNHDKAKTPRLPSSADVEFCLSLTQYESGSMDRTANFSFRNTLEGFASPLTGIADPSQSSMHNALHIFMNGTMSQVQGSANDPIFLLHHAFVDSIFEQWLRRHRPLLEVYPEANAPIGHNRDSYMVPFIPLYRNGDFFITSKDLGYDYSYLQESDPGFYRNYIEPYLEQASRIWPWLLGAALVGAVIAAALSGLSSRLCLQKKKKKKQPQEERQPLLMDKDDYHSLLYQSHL
Description: Inhibition of TYR in alpha-MSH-stimulated mouse B16-F10 cells using L-Dopa as substrate incubated for 24 hrs by absorbance based assay. It is filed as cell-based. The settings on record: dose 5-25 µM.

A short description of series [5]: Drug distribution in pig skin epidermis at 2 mg/ml, TOPp measured after 2 hrs by OrbiSIMS imaging analysis. It is filed as ADME, tissue-based, Sus scrofa. To be noted: topical_or_ocular.
The test system of series [6] is Cavia porcellus. Description: Anti-melanogenic activity in guinea pig model of UV-induced skin pigmentation assessed as reduction in melanin production at 1 mM administered topically as CP formulation for 2 weeks measured after 3 days by Fontana-Masson staining based analysis. It is filed as functional, organism-based. The settings on record: time 17.0 day.
In series [7] the test system is Cavia porcellus. Description: Anti-melanogenic activity in guinea pig model of UV-induced skin pigmentation assessed as inhibition of melanin production administered topically for 2 weeks measured after 3 days by Fontana-Masson staining based analysis. It is filed as functional, organism-based. To be noted: time 17.0 day.
For series [8], the system named is Cavia porcellus. Put plainly: Anti-melanogenic activity in guinea pig model of UV-induced skin pigmentation assessed as reduction in melanin production at 1 mM administered topically as PG formulation for 2 weeks measured after 3 days by Fontana-Masson staining based analysis. It is filed as functional, organism-based. To be noted: time 17.0 day.
Series [9] concerns the target T3, Tyrosinase (Homo sapiens) (UniProt P14679).
T3 sequence (whole entry): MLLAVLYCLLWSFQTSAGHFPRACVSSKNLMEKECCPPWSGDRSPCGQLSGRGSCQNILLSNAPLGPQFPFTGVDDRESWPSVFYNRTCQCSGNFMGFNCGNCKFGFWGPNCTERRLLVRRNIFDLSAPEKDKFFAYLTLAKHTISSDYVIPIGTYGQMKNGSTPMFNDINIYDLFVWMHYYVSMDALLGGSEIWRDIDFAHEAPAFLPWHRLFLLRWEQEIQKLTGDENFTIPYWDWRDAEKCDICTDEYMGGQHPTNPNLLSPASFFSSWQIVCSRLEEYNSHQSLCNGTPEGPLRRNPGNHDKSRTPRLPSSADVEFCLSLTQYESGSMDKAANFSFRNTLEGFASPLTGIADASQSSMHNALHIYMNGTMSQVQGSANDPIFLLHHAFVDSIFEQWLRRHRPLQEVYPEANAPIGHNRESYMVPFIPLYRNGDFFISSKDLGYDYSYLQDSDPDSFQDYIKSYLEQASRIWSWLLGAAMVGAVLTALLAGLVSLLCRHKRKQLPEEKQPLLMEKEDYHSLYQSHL
Description: Inhibition of TYR in alpha-MSH-stimulated human A-375 cells using L-Dopa as substrate at 20 uM incubated for 24 hrs by absorbance based assay. It is filed as cell-based.

Series [10] can be described thus: Permeability in pig skin explant Franz diffusion cell model assessed as compound remaining transdermal at 2 mg/ml, TOPp measured for 0.5 to 24 hrs by HPLC analysis. It is filed as ADME, tissue-based, Sus scrofa, Skin of body. To be noted: topical_or_ocular, time 0.5-24 hrs.
Series [11] relates to A-375. Put plainly: Anti-melanogenic activity against alpha-MSH-stimulated human A-375 cells assessed as decrease in melanin content at 20 uM incubated for 24 hrs by absorbance based assay. It is filed as functional, cell-based.
Series [12] has as its system B16-F10. Put plainly: Cytotoxicity against mouse B16-F10 cells at 50 uM incubated for 72 hrs by MTT assay. It is filed as toxicity, cell-based. The settings on record: b16-f10, 72 h.
Series [13] can be described thus: Permeability in pig skin explant Franz diffusion cell model assessed as compound remaining intradermal at 2 mg/ml, TOPp measured after 4 hrs by HPLC analysis. It is filed as ADME, tissue-based, Sus scrofa, Skin of body. The settings on record: topical_or_ocular.
The test system of series [14] is B16-F10. Description: Anti-melanogenic activity against alpha-MSH-stimulated mouse B16-F10 cells assessed as decrease in melanin content incubated for 24 hrs by absorbance based assay. The settings on record: dose 5-25 µM. It is filed as functional, cell-based.
Series [15] concerns B16-F10. Description: Downregulation of TYR in mouse B16-F10 cells incubated for 72 hrs by Western blot analysis. It is filed as functional, cell-based. To be noted: dose 0.1-2 µM. A general note: A western blot detects proteins with antibodies after separation by electrophoresis.
Series [16] is described as follows: Permeability in pig skin explant Franz diffusion cell model assessed as compound remaining intradermal at 2 mg/ml, TOPp measured after 2 hrs by HPLC analysis. It is filed as ADME, tissue-based, Sus scrofa, Skin of body. To be noted: topical_or_ocular.
The subject of series [17] is B16-F10. Description: Downregulation of MiTF level in mouse B16-F10 cells incubated for 72 hrs by Western blot analysis. It is filed as functional, cell-based. The settings on record: dose 0.1-2 µM.
Series [18] has as its system A-375. Put plainly: Cytotoxicity against human A-375 cells at 50 uM incubated for 72 hrs by MTT assay. It is filed as toxicity, cell-based. To be noted: a-375, 72 h. A general note: Tetrazolium assays rely on reduction of a dye to a coloured formazan, in cell work by metabolically active cells.

Molecules are shown by their SMILES. Active and inactive are the calls of the source. No cut-off for these calls is given here.

Turning to `Cc1ccccc1C(=O)CCc1ccc(O)cc1O`, the IC50 (in general, the point on the concentration scale where inhibition reaches its midpoint) in [1] is 0.239 µM; in series [2] it was 0.123 µM.

Regarding `O=C(CCc1ccc(O)cc1O)c1ccc(Br)cc1`, the IC50 in series [1] is 0.184 µM; in series [2], 0.11 µM.

With `COc1cccc(CCC(=O)c2ccc(O)cc2O)c1OC`, the IC50 in series [1] and in series [2] was greater than 10 µM each time.

On to `COc1ccc(C(=O)CCc2ccc(OC)cc2OC)cc1`, for which the IC50 in series [1] and in series [2] was greater than 10 µM each time.

As to `O=C(CCc1ccc(O)cc1O)c1ccccc1O`, the figures for the IC50 in series [1] and in [2] were 0.286 µM and 0.069 µM, respectively.

In the case of `O=C(CCc1cccc([N+](=O)[O-])c1)c1ccc(O)cc1O`, the IC50 in series [1] and in series [2] was greater than 10 µM in each case.

`COc1ccc(C(=O)CCc2ccc(O)cc2O)c(O)c1`: the IC50 was determined as 0.183 µM in [1] and 0.069 µM in series [2].

In the case of `O=C(CCc1ccc(O)cc1O)c1ccc(O)cc1O`, the Activity entry in series [3] is “Dose-Dependent Effect”; in series [7], “Dose-Dependent Effect”; in series [10], 1.2%; in series [12], “Non-Toxic”; in series [13] it was 3.56%; in series [14], “Dose-Dependent Effect”. In addition, the Activity result in series [15] is “Dose-Dependent Effect”; in [16], 26.77%; in [17] it was “Dose-Dependent Effect”; in [18], “Toxic”. The inhibition entry in series [4] was “Dose-Dependent Effect”. Further, in series [5], the Drug uptake entry is “Active”. Besides, the result in series [6], in series [8] and in series [11] was Active. Also, the inhibition entry in series [9] is “Active”. In addition, the IC50 amounted to 0.064 µM in [1] and 0.05 µM in series [2].

Consider `COc1ccc(C(=O)CCc2ccc(O)cc2)cc1`, for which the IC50 in series [1] and in series [2] was greater than 10 µM in each case.

As to `COc1cc(C(=O)CCc2ccc(O)cc2O)ccc1O`, the inhibition entry in series [4] was “Dose-Dependent Effect”. Further, the inhibition result in series [9] was “Active”. Further, the result in series [11] was Active. Besides, the Activity entry in series [12] is “Non-Toxic”; in [14], “Dose-Dependent Effect”; in [18], “Non-Toxic”. For the same molecule, the IC50 in series [1] amounted to 0.165 µM; in [2] it was 0.054 µM.

As for `COc1ccc(C(=O)CCc2ccc(O)cc2O)cc1O`, the IC50 in series [1] was determined as 0.245 µM; in series [2], 0.069 µM.

As for `COc1cccc(CCC(=O)c2ccc(O)cc2O)c1`, the IC50 in [1] and in [2] was greater than 10 µM in each case.

Take `O=C(CCc1ccc(O)cc1)c1ccc(O)cc1O` [DAVIDIGENIN]: the IC50 in [1] and in series [2] was greater than 10 µM throughout.

Take `COc1ccc(CCC(=O)c2ccc(O)cc2O)cc1O`: the IC50 in series [1] and in series [2] was greater than 10 µM throughout.

For the molecule `O=C(CCc1ccc(O)cc1O)c1ccc(-c2ccccc2)cc1`, the IC50 came out at 1.431 µM in series [1] and 0.331 µM in series [2].

For `Cc1ccccc1CCC(=O)c1ccc(O)cc1O`, the IC50 in series [1] and in series [2] was greater than 10 µM in each case.

As to `COc1ccc(C(=O)CCc2ccc(O)cc2O)cc1`, the IC50 stood at 0.171 µM in [1] and 0.089 µM in series [2].

Take `O=C(CCc1ccc(O)cc1O)c1ccc(O)cc1`: the IC50 in series [1] came to 0.212 µM; in series [2] it was 0.072 µM.

With `Cc1cccc(C(=O)CCc2ccc(O)cc2O)c1`, the IC50 in [1] is 0.189 µM; in [2], 0.133 µM.

Consider `O=C(CCc1ccccc1O)c1ccc(O)cc1O`, for which the IC50 in [1] and in series [2] was greater than 10 µM throughout.

For `O=C(CCc1ccc(O)c(O)c1)c1ccc(O)cc1O`, the IC50 in series [1] and in [2] was greater than 10 µM throughout.

On to `O=C(CCc1cccc(O)c1)c1ccc(O)cc1O`, for which the IC50 in [1] and in series [2] was greater than 10 µM in each case.

Regarding `COc1cc(CCC(=O)c2ccc(O)cc2O)cc(OC)c1OC`, the IC50 in [1] and in series [2] was greater than 10 µM throughout.

Regarding `COc1ccc(CCC(=O)c2ccc(O)cc2O)c(OC)c1OC`, the IC50 in series [1] and in series [2] was greater than 10 µM throughout.

With `COc1ccc(CCC(=O)c2ccc(O)cc2O)cc1OC`, the IC50 in series [1] and in [2] was greater than 10 µM in each case.

For the molecule `COc1ccc(C(=O)CCc2ccccc2O)cc1`, the IC50 in [1] and in series [2] was greater than 10 µM in each case.

On to `COc1ccc(CCC(=O)c2ccc(O)cc2O)c(OC)c1`, for which the IC50 in series [1] and in series [2] was greater than 10 µM in each case.

Take `COc1ccc(C(=O)CCc2ccccc2O)c(O)c1`: the IC50 in series [1] and in series [2] was greater than 10 µM in each case.

Regarding `COc1ccc(C(=O)CCc2ccc(O)cc2)c(O)c1`, the IC50 in series [1] and in [2] was greater than 10 µM throughout.

In the case of `O=C(CCc1ccc(O)cc1O)c1ccc(Cl)cc1Cl`, the IC50 in series [1] was 0.189 µM; in [2], 0.119 µM.

On to `CC(C)c1ccc(C(=O)CCc2ccc(O)cc2O)cc1`, for which the IC50 in series [1] turned out to be 0.644 µM; in series [2], 0.232 µM.

Consider `O=C(CCc1ccc(O)cc1O)c1ccccc1`, for which the IC50 in [1] amounted to 0.625 µM; in series [2], 0.183 µM.

With `COc1ccc(CCC(=O)c2ccc(O)cc2O)c(O)c1`, the IC50 in [1] and in series [2] was greater than 10 µM throughout.
